The supplement of paper PMC13380429

What was measured:
Settings in all cases: 72 h
Caco-2 [1] = assay: cell viability relative to DMSO; higher = less toxic
Calu-3 [2] = assay: as above
HepG2 [3] = assay: as above
Vero E6 [4] = assay: as above
Caco-2 [5] = assay: relative viability EC50 (midpoint between 100% and the lowest measured viability); higher = less toxic
Calu-3 [6] = assay: as above
HepG2 [7] = assay: as above
Vero E6 [8] = assay: as above
Caco-2 [9] = assay: drug sensitivity score (DSS) for viability; higher = more toxic; extreme values may be limits of the assay
Calu-3 [10] = assay: as above
HepG2 [11] = assay: as above
Vero E6 [12] = assay: as above
U2OS [13] = assay: cell viability relative to DMSO; higher = less toxic
U2OS [14] = assay: relative viability EC50 (midpoint between 100% and the lowest measured viability); higher = less toxic
U2OS [15] = assay: drug sensitivity score (DSS) for viability; higher = more toxic; extreme values may be limits of the assay

Compound	cell viability (Caco-2 [1]; 1 nM)	cell viability (Caco-2 [1]; 10 nM)	cell viability (Caco-2 [1]; 100 nM)	cell viability (Caco-2 [1]; 1000 nM)	cell viability (Caco-2 [1]; 10000 nM)	cell viability (Calu-3 [2]; 1 nM)	cell viability (Calu-3 [2]; 10 nM)	cell viability (Calu-3 [2]; 100 nM)	cell viability (Calu-3 [2]; 1000 nM)	cell viability (Calu-3 [2]; 10000 nM)	cell viability (HepG2 [3]; 1 nM)	cell viability (HepG2 [3]; 10 nM)	cell viability (HepG2 [3]; 100 nM)	cell viability (HepG2 [3]; 1000 nM)	cell viability (HepG2 [3]; 10000 nM)	cell viability (Vero E6 [4]; 1 nM)	cell viability (Vero E6 [4]; 10 nM)	cell viability (Vero E6 [4]; 100 nM)	cell viability (Vero E6 [4]; 1000 nM)	cell viability (Vero E6 [4]; 10000 nM)	relative viability EC50 (Caco-2 [5])	relative viability EC50 (Calu-3 [6])	relative viability EC50 (HepG2 [7])	relative viability EC50 (Vero E6 [8])	drug sensitivity score (Caco-2 [9])	drug sensitivity score (Calu-3 [10])	drug sensitivity score (HepG2 [11])	drug sensitivity score (Vero E6 [12])	cell viability (U2OS [13]; 1 nM)	cell viability (U2OS [13]; 10 nM)	cell viability (U2OS [13]; 100 nM)	cell viability (U2OS [13]; 1000 nM)	cell viability (U2OS [13]; 10000 nM)	relative viability EC50 (U2OS [14])	drug sensitivity score (U2OS [15])
CCCC(C)NC(=O)c1ccc(Cl)c(Cl)c1 (stereo unspecified)	120%	98%	104%	117%	94.5%	103%	77.1%	99%	77.4%	104%	97.1%	104%	92.8%	98%	98.6%	104%	101%	99.3%	103%	99.8%	> 10 µM	> 10 µM	> 10 µM	> 10 µM	0	0	0	0	–	–	–	–	–	–	–
COc1cc(NC(=O)c2ccccn2)ccc1Cl	100%	94.5%	95.3%	90.8%	92.3%	–	–	–	–	–	92.9%	99.2%	91%	102%	94.9%	101%	99%	96.3%	102%	95.3%	> 10 µM	–	> 10 µM	> 10 µM	0	–	0	0	100%	95.3%	101%	99.4%	96.3%	> 10 µM	0
COc1ccc(CC2NCCc3c2[nH]c2ccc(C)cc32)c(Cl)c1OC (stereo unspecified)	94.8%	98.2%	105%	102%	87.9%	101%	95.9%	92.9%	102%	66.8%	103%	90.2%	108%	104%	91.7%	99%	93.2%	101%	89.1%	76.5%	> 10 µM	–	> 10 µM	> 10 µM	0	1.3	0	2.1	95.4%	101%	98.3%	101%	94%	> 10 µM	0
CS(=O)(=O)CCNCc1nc(-c2ccc3ncnc(Nc4ccc(OCc5cccc(F)c5)c(Cl)c4)c3c2)cs1	97.1%	97.5%	90.5%	80.8%	73.1%	–	–	–	–	–	106%	111%	93.5%	102%	104%	95%	98.3%	93.3%	79%	72.5%	–	–	> 10 µM	–	3.5	–	0	3.7	99.9%	100%	96.7%	94.2%	89.8%	> 10 µM	0
Cn1ccc2cc3c(cc21)CCN3C(=O)Nc1cccnc1	88.8%	93.2%	98.1%	104%	81.3%	–	–	–	–	–	105%	114%	95.7%	95.3%	100%	99.1%	96.8%	100%	95.5%	100%	> 10 µM	–	> 10 µM	> 10 µM	0.1	–	0	0	98.2%	102%	93.9%	96%	95.1%	> 10 µM	0
O=C(Nc1ccc(CN2CCOCC2)cc1)c1ccc(-c2cccc(Cl)c2)o1	110%	102%	99.9%	104%	95.7%	98.3%	95.4%	97.3%	97.8%	91%	107%	104%	97.8%	93.7%	99.5%	100%	100%	102%	99.4%	102%	> 10 µM	> 10 µM	> 10 µM	> 10 µM	0	0	0	0	–	–	–	–	–	–	–
O=C1Nc2cc(Cl)c(Cl)cc2N2CCNC[C@H]12	110%	100%	102%	92.2%	85.9%	103%	95.1%	97.3%	97.7%	92.5%	–	–	–	–	–	104%	100%	100%	99.1%	95.7%	> 10 µM	> 10 µM	–	> 10 µM	0.7	0	–	0	102%	94.9%	100%	95%	96.2%	> 10 µM	0
O[C@@H](CN1CCNCC1)Cn1c2ccc(Br)cc2c2cc(Br)ccc21 [BAX-channel-blocker]	100%	104%	93.6%	87.7%	10.4%	–	–	–	–	–	91.2%	102%	90.4%	95%	0.2%	101%	96.5%	96.1%	92.9%	0.2%	2.06 µM	–	2.78 µM	2.59 µM	7	–	6.3	6.6	97.6%	102%	97.8%	93.9%	3.8%	2.66 µM	6.3
COc1cccc(C=NCCN=Cc2cccc(OC)c2[O-])c1[O-].[Cl-].[Mn+3] [EUK-134]	94.7%	89%	91.5%	92%	85.6%	110%	87.9%	102%	94%	99.3%	95%	109%	99.5%	101%	72.3%	98.4%	102%	99.3%	105%	96%	> 10 µM	> 10 µM	–	> 10 µM	0	0	1.1	0	101%	96.6%	107%	99.3%	99%	> 10 µM	0
CC(C)(N)c1cc(C(=O)N[C@@H]2CCc3ccc(Oc4ccnc5c4CCC(=O)N5)cc3C2)cc(C(F)(F)F)c1 [ML786]	108%	92.7%	104%	90.8%	68.5%	–	–	–	–	–	99.2%	110%	62.4%	31.1%	6.8%	106%	105%	112%	99%	33.5%	–	–	0.221 µM	3.06 µM	2.7	–	17.5	3.8	101%	98.6%	100%	82.4%	9.6%	1.76 µM	7.9
CC(C)=CCc1c(O)cc(O)c2c(=O)c(O)c(-c3ccc(C(F)(F)F)cc3)oc12 [SNG-1153]	92.1%	93.8%	98.1%	95.8%	40%	114%	89.6%	108%	99.3%	68.1%	97.3%	98.8%	106%	103%	40.2%	100%	94.3%	100%	93%	50.7%	2.6 µM	–	3.43 µM	–	3.9	1.5	3	3.8	96.7%	94.7%	94.5%	99.9%	43.2%	3.14 µM	3.1
Oc1c(CN2CCCC2)cc(COCc2ccccc2)c2cccnc12 [UC-112]	92.2%	95.9%	99.1%	73%	3.6%	97.7%	94.8%	108%	107%	69.5%	97.5%	94.5%	96.2%	81.6%	16.6%	97.8%	95.3%	94%	51.7%	6.8%	1.46 µM	–	1.66 µM	0.927 µM	9.4	1	7.5	10.9	97.6%	91.1%	94%	88.9%	43.1%	1.76 µM	4.9
O=C(COc1ccc(C(=O)c2ccccc2)cc1)NC1CCN(Cc2ccccc2)CC1 [adiporon]	95.2%	92.7%	99%	91.6%	91.9%	–	–	–	–	–	92.1%	94.3%	94.8%	107%	85.4%	97.1%	98.2%	93.8%	96.9%	101%	> 10 µM	–	> 10 µM	> 10 µM	0	–	0	0	96.4%	93.2%	100%	98.1%	95.7%	> 10 µM	0
Cc1ccc(NC(=O)c2ccc(CN3CC[C@H](N(C)C)C3)c(C(F)(F)F)c2)cc1Nc1nccc(-c2cncnc2)n1 [bafetinib]	97.1%	108%	92.9%	104%	79%	98.7%	107%	98.8%	99.9%	74.8%	98.4%	89.2%	91%	85.1%	19.5%	96.7%	98.1%	96.5%	99.7%	76.1%	> 10 µM	–	1.8 µM	> 10 µM	0.5	1	6.9	0.9	99.9%	101%	103%	99.4%	79%	> 10 µM	0.7
O=C(/C=C/c1ccc(O)c(O)c1)c1ccc(O)cc1O [butein]	95.5%	103%	101%	92%	61.9%	100%	103%	97.2%	112%	92.7%	99.3%	103%	104%	93.4%	58.4%	103%	101%	102%	99.6%	101%	–	> 10 µM	–	> 10 µM	3.2	0	3.2	0	93.8%	101%	94.9%	96.9%	75.9%	> 10 µM	1.4
